{
  "source": "ChEMBL document CHEMBL5550112",
  "about": "“Development of a fluorescent ligand that can illuminate nuclear G-quadruplexes and modulate oncogene expression” (Bioorg Med Chem, 2024)",
  "key": {"MDA-MB-231 [1]": {"tested_on": "MDA-MB-231", "assay": "Induction of cell cycle arrest in human MDA-MB-231 cells assessed as accumulation of cells at G0-G1 phase at 20 uM incubated for 24 hrs by flow cytometry (reference value: 69.6 %)", "assay_type": "functional"}, "MDA-MB-231 [2]": {"tested_on": "MDA-MB-231", "assay": "Induction of cell death in human MDA-MB-231 cells cultured as 3D tumor spheroids assessed as increase in red fluorescence intensity at 20 uM incubated for 7 days by propidium iodide staining based imaging analysis", "assay_type": "functional", "conditions": "time 7.0 day"}, "MDA-MB-231 [3]": {"tested_on": "MDA-MB-231", "assay": "Induction of cell cycle arrest in human MDA-MB-231 cells assessed as accumulation of cells at sub-G1 phase at 20 uM incubated for 24 hrs by flow cytometry (reference value: 0.6 %)", "assay_type": "functional"}, "Quadruplex DNA [4]": {"tested_on": "Quadruplex DNA", "assay": "Binding affinity to KRAS G-quadruplex DNA (unknown origin) assessed as fluorescence quantum yield by fluorescence spectrophotometric analysis", "assay_type": "nucleic-acid assay"}, "Quadruplex DNA [5]": {"tested_on": "Quadruplex DNA", "assay": "Binding affinity to G-quadruplex DNA in human MDA-MB-231 cells assessed as increase in fluorescence at 2 uM incubated for 30 mins in presence of dimethyl sulfate by Hoechst 33342 staining based confocal microscopic analysis", "assay_type": "cell-based"}, "Quadruplex DNA [6]": {"tested_on": "Quadruplex DNA", "assay": "Binding affinity to Antiparallel c-KIT G-quadruplex DNA (unknown origin) assessed as increase in fluorescence intensity at 5 uM by fluorescence spectrophotometric analysis", "assay_type": "nucleic-acid assay"}, "Quadruplex DNA [7]": {"tested_on": "Quadruplex DNA", "assay": "Binding affinity to Parallel KRAS G-quadruplex DNA (unknown origin) assessed as increase in fluorescence intensity at 5 uM by fluorescence spectrophotometric analysis", "assay_type": "nucleic-acid assay"}, "Quadruplex DNA [8]": {"molecular_target": "Quadruplex DNA", "assay": "Binding affinity to c-MYC G-quadruplex DNA (unknown origin) assessed as dissociation constant by fluorescence spectrophotometric analysis", "assay_type": "nucleic-acid assay"}, "Quadruplex DNA [9]": {"tested_on": "Quadruplex DNA", "assay": "Binding affinity to Parallel EAD G-quadruplex DNA (unknown origin) assessed as increase in fluorescence intensity at 5 uM by fluorescence spectrophotometric analysis", "assay_type": "nucleic-acid assay"}, "Quadruplex DNA [10]": {"tested_on": "Quadruplex DNA", "assay": "Binding affinity to Antiparallel HRAS G-quadruplex DNA (unknown origin) assessed as increase in fluorescence intensity at 5 uM by fluorescence spectrophotometric analysis", "assay_type": "nucleic-acid assay"}, "Quadruplex DNA [11]": {"tested_on": "Quadruplex DNA", "assay": "Binding affinity to c-MYC G-quadruplex DNA (unknown origin) assessed as increase in fluorescence by measuring red shift at 5 uM by fluorescence titration spectra analysis", "assay_type": "nucleic-acid assay"}, "MDA-MB-231 [12]": {"tested_on": "MDA-MB-231", "assay": "Inhibition of cell migration in human MDA-MB-231 cells at 10 to 20 uM incubated for 24 hrs by reverse-phase microscopy based scratch wound healing assay", "assay_type": "functional", "conditions": "dose 10-20 µM"}, "Quadruplex DNA [13]": {"tested_on": "Quadruplex DNA", "assay": "Binding affinity to Parallel BCL2 G-quadruplex DNA (unknown origin) assessed as increase in fluorescence intensity at 5 uM by fluorescence spectrophotometric analysis", "assay_type": "nucleic-acid assay"}, "Quadruplex DNA [14]": {"tested_on": "Quadruplex DNA", "assay": "Binding affinity to Parallel c-MYC G-quadruplex DNA (unknown origin) assessed as increase in fluorescence intensity at 5 uM by fluorescence spectrophotometric analysis", "assay_type": "nucleic-acid assay"}, "Quadruplex DNA [15]": {"tested_on": "Quadruplex DNA", "assay": "Binding affinity to Parallel PS2M G-quadruplex DNA (unknown origin) assessed as increase in fluorescence intensity at 5 uM by fluorescence spectrophotometric analysis", "assay_type": "nucleic-acid assay"}, "Quadruplex DNA [16]": {"tested_on": "Quadruplex DNA", "assay": "Binding affinity to 5'-Cy5-labelled c-MYC G-quadruplex DNA (unknown origin) assessed as decrease in Cy5 fluorescence upto 5 uM by fluorescence quenching analysis", "assay_type": "nucleic-acid assay"}, "MDA-MB-231 [17]": {"tested_on": "MDA-MB-231", "assay": "Induction of cell cycle arrest in human MDA-MB-231 cells assessed as accumulation of cells at G2-M phase at 15 uM incubated for 24 hrs by flow cytometry (reference value: 16.8 %)", "assay_type": "functional"}, "Albumin": {"molecular_target": "Albumin (Bos taurus, UniProt P02769)", "sequence (P02769 whole entry)": "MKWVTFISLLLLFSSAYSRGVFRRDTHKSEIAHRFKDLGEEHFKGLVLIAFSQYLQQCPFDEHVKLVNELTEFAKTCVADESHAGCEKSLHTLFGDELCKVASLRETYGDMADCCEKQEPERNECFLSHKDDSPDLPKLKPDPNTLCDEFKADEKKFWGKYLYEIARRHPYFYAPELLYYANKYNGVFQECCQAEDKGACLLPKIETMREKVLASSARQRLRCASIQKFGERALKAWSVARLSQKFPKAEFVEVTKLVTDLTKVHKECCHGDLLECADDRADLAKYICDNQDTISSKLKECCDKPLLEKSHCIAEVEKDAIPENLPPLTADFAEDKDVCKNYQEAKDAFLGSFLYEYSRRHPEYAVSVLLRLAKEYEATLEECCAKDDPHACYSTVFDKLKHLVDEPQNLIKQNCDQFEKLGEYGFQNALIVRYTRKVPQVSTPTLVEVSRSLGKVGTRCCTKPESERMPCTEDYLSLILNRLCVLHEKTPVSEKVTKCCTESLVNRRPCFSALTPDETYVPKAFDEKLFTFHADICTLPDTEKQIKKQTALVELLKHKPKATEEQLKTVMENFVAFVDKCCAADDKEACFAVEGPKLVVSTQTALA", "assay": "Binding affinity to bovine serum albumin assessed as increase in fluorescence intensity at 5 uM by fluorescence spectrophotometric analysis", "assay_type": "cell-free", "conditions": "cattle"}, "Quadruplex DNA [18]": {"tested_on": "Quadruplex DNA", "assay": "Displacement of […] from G-quadruplex DNA in human MDA-MB-231 cells assessed as increase in fluorescence at 2 uM preincubated for 30 mins followed by PDS addition and measured after 20 mins by Hoechst 33342 staining based confocal microscopic analysis", "assay_type": "cell-based", "conditions": "time 50.0 min"}, "MDA-MB-231 [19]": {"tested_on": "MDA-MB-231", "assay": "Induction of apoptosis in human MDA-MB-231 cells assessed as […] protein expression at 10 to 20 uM incubated for 24 hrs by Western blot analysis", "assay_type": "functional, cell-based", "conditions": "dose 10-20 µM"}, "MDA-MB-231 [20]": {"tested_on": "MDA-MB-231", "assay": "Induction of apoptosis in human MDA-MB-231 cells assessed as downregulation of c-MYC protein expression at 10 to 20 uM incubated for 24 hrs by Western blot analysis", "assay_type": "functional, cell-based", "conditions": "dose 10-20 µM"}, "DNA [21]": {"tested_on": "DNA", "assay": "Binding affinity to Duplex DNA (unknown origin) assessed as fluorescence quantum yield by fluorescence spectrophotometric analysis", "assay_type": "nucleic-acid assay"}, "HEK-293T": {"tested_on": "HEK-293T", "assay": "Effect on c-MYC gene expression in human HEK293T cells co-transfected with c-Myc promoter luciferase reporter assessed as decrease in c-MYC expression by measuring reduction in firefly luciferase expression at 10 to 20 uM incubated for 24 hrs by firefly luciferase based microplate analysis", "assay_type": "functional, cell-based", "conditions": "dose 10-20 µM"}, "Quadruplex DNA [22]": {"tested_on": "Quadruplex DNA", "assay": "Binding affinity to c-MYC G-quadruplex DNA (unknown origin) assessed as fluorescence quantum yield by fluorescence spectrophotometric analysis", "assay_type": "nucleic-acid assay"}, "Quadruplex DNA [23]": {"molecular_target": "Quadruplex DNA", "assay": "Binding affinity to KRAS G-quadruplex DNA (unknown origin) assessed as dissociation constant by fluorescence spectrophotometric analysis", "assay_type": "nucleic-acid assay"}, "MDA-MB-231 [24]": {"tested_on": "MDA-MB-231", "assay": "Induction of cell cycle arrest in human MDA-MB-231 cells assessed as accumulation of cells at G0-G1 phase at 15 uM incubated for 24 hrs by flow cytometry (reference value: 69.6 %)", "assay_type": "functional"}, "Quadruplex DNA [25]": {"tested_on": "Quadruplex DNA", "assay": "Binding affinity to Antiparallel ODN G-quadruplex DNA (unknown origin) assessed as increase in fluorescence intensity at 5 uM by fluorescence spectrophotometric analysis", "assay_type": "nucleic-acid assay"}, "DNA [26]": {"molecular_target": "DNA", "assay": "Binding affinity to Duplex DNA (unknown origin) assessed as dissociation constant by fluorescence spectrophotometric analysis", "assay_type": "nucleic-acid assay"}, "MDA-MB-231 [27]": {"tested_on": "MDA-MB-231", "assay": "Induction of cell cycle arrest in human MDA-MB-231 cells assessed as accumulation of cells at sub-G1 phase at 15 uM incubated for 24 hrs by flow cytometry (reference value: 0.6 %)", "assay_type": "functional"}, "MDA-MB-231 [28]": {"tested_on": "MDA-MB-231", "assay": "Induction of cell cycle arrest in human MDA-MB-231 cells assessed as accumulation of cells at S phase at 15 uM incubated for 24 hrs by flow cytometry (reference value: 13 %)", "assay_type": "functional"}, "Quadruplex DNA [29]": {"tested_on": "Quadruplex DNA", "assay": "Stabilization of FAM/TAMRA-labelled c-MYC G-quadruplex DNA (unknown origin) assessed as change in melting temperature in presence of duplex DNA by FRET assay", "assay_type": "nucleic-acid assay"}, "Quadruplex DNA [30]": {"tested_on": "Quadruplex DNA", "assay": "Binding affinity to c-MYC G-quadruplex DNA (unknown origin) assessed as decrease in absorption band by measuring red shift at 5 uM by absorption spectra analysis", "assay_type": "nucleic-acid assay"}, "Quadruplex DNA [31]": {"tested_on": "Quadruplex DNA", "assay": "Binding affinity to Antiparallel TBA G-quadruplex DNA (unknown origin) assessed as increase in fluorescence intensity at 5 uM by fluorescence spectrophotometric analysis", "assay_type": "nucleic-acid assay"}, "DNA [32]": {"tested_on": "DNA", "assay": "Binding affinity to Duplex DNA (unknown origin) assessed as increase in fluorescence by measuring red shift at 5 uM by fluorescence titration spectra analysis", "assay_type": "nucleic-acid assay"}},
  "note": "Activity calls are given as the source filed them. The rule behind the calls is not given here.",
  "data": [
    {"molecule": "CCn1c2ccccc2c2cc(/C=C/c3sc4ccccc4[n+]3C)ccc21.[I-]", "values": [
      {"measurement": "Activity", "setting": "MDA-MB-231 [1]", "value": 28.3, "unit": "%"},
      {"measurement": "Activity", "setting": "MDA-MB-231 [2]", "value": "Active"},
      {"measurement": "Activity", "setting": "MDA-MB-231 [3]", "value": 56.7, "unit": "%"},
      {"measurement": "Activity", "setting": "Quadruplex DNA [4]", "value": 0.19},
      {"measurement": "Activity", "setting": "Quadruplex DNA [5]", "value": "inactive"},
      {"measurement": "Activity", "setting": "Quadruplex DNA [6]", "value": "Active"},
      {"measurement": "Activity", "setting": "Quadruplex DNA [7]", "value": "Active"},
      {"measurement": "Kd", "setting": "Quadruplex DNA [8]", "value": 700, "unit": "nM"},
      {"measurement": "Activity", "setting": "Quadruplex DNA [9]", "value": "Active"},
      {"measurement": "Activity", "setting": "Quadruplex DNA [10]", "value": "Active"},
      {"measurement": "Activity", "setting": "Quadruplex DNA [11]", "value": "Active"},
      {"measurement": "inhibition", "setting": "MDA-MB-231 [12]", "value": "Active"},
      {"measurement": "Activity", "setting": "Quadruplex DNA [13]", "value": "Active"},
      {"measurement": "Activity", "setting": "Quadruplex DNA [14]", "value": "Active"},
      {"measurement": "Activity", "setting": "Quadruplex DNA [15]", "value": "Active"},
      {"measurement": "Activity", "setting": "Quadruplex DNA [16]", "value": "Active"},
      {"measurement": "Activity", "setting": "MDA-MB-231 [17]", "value": 10.3, "unit": "%"},
      {"measurement": "Activity", "setting": "Albumin", "value": "Not Active"},
      {"measurement": "Activity", "setting": "Quadruplex DNA [18]", "value": "inactive"},
      {"measurement": "Activity", "setting": "MDA-MB-231 [19]", "value": "Active"},
      {"measurement": "Activity", "setting": "MDA-MB-231 [20]", "value": "Active"},
      {"measurement": "Activity", "setting": "DNA [21]", "value": 0.03},
      {"measurement": "Activity", "setting": "HEK-293T", "value": "Active"},
      {"measurement": "Activity", "setting": "Quadruplex DNA [22]", "value": 0.3},
      {"measurement": "Kd", "setting": "Quadruplex DNA [23]", "value": 500, "unit": "nM"},
      {"measurement": "Activity", "setting": "MDA-MB-231 [24]", "value": 47.2, "unit": "%"},
      {"measurement": "Activity", "setting": "Quadruplex DNA [25]", "value": "Active"},
      {"measurement": "Kd", "setting": "DNA [26]", "value": 5300, "unit": "nM"},
      {"measurement": "Activity", "setting": "MDA-MB-231 [27]", "value": 32.3, "unit": "%"},
      {"measurement": "Activity", "setting": "MDA-MB-231 [28]", "value": 10.2, "unit": "%"},
      {"measurement": "ΔTm", "setting": "Quadruplex DNA [29]", "value": 8.1, "unit": "°C"},
      {"measurement": "Activity", "setting": "Quadruplex DNA [30]", "value": "Active"},
      {"measurement": "Activity", "setting": "Quadruplex DNA [31]", "value": "Active"},
      {"measurement": "Activity", "setting": "DNA [32]", "value": "Active"}
    ]}
  ]
}
